Experimental data: patent US10173969B2, “Production of aniline via anthranilate” (Covestro Deutschland AG, priority 2014, dated 2019)

Tests used:
[1] = Kinetics of thermal decarboxylation in aqueous buffer solution without catalyst; assay type: physicochemical; settings: for k (rate coefficient of decarboxylation) / n (order of reaction of decarboxylation): buffer solution, no catalyst
Description: (§1) In this experiment, the kinetics of the thermal decarboxylation of step b) of the method according to the invention was studied. […] In this case it was possible to decarboxylate anthranilate ion to aniline (ANL). AA, or o-aminobenzoate, respectively was either provided biologically by a recombinant microbial host as described in Example 1, or it was provided chemically, e.g. it was commercially obtained, e.g. from Sigma Aldrich, catalog no. A89855.
(§2) A buffer solution containing (NH4)2SO4 (20 g/L), Na2HPO4 (1 g/L) and KH2PO4 (1 g/L) in distilled water was prepared. Then AA 10 wt % was suspended in this solution. NH4OH solution (28-30% NH3) was added dropwise into this suspension until a clear yellow solution was formed. The pH of this ammonium anthranilate (NH4AA) solution was around 7. The ammonium anthranilate (3 wt %) solution was also prepared using this method.
80 mL of each of the above solutions was transferred into an autoclave 160 mL and heated to 160° C. or 180° C. and samples were taken at different time intervals to analyse the rate of aniline (ANL) formation.
Decarboxylation of AA 0.5 wt % and NH4AA 3 wt % in aqueous buffer solution was performed at 160° C. without using any catalyst. […] The kinetic model was established using the general reaction rate formula as below and considering the experimental data to calculate the optimized k and n parameters which are the rate coefficient and the order of reaction, respectively.
The kinetics of NH4AA 10 wt % decarboxylation at 160° C. and 180° C. was also studied using experimental data and a simulating model.

[2] = Solubility of ammonium anthranilate in buffer solution; assay type: physicochemical; settings: AA buffer solution with NH4OH added
Description: as §1, §2

[3] = reaction temperature 160 °C, listed as NH4AA 10% in buffer solution

| Structure (SMILES) | rate coefficient at 180 °C relative to that at 160 °C ([1]; NH4AA 10 wt %) [times] | k (rate coefficient of decarboxylation) ([1]; reaction temperature 160 °C) [h⁻¹] | n (order of reaction of decarboxylation) ([1]; reaction temperature 160 °C) | k (rate coefficient of decarboxylation) [1, 3] [h⁻¹] | n (order of reaction of decarboxylation) [1, 3] | k (rate coefficient of decarboxylation) ([1]; reaction temperature 180 °C) [h⁻¹] | n (order of reaction of decarboxylation) ([1]; reaction temperature 180 °C) | rate coefficient (k) relative to that of NH4AA 3 wt % ([1]; 160 °C, decarboxylation in water) [times] | solubility [2] |
| --- | --- | --- | --- | --- | --- | --- | --- | --- | --- |
| N.Nc1ccccc1C(=O)O [NH4AA 3% in buffer solution, ammonium anthranilate] | 36 | 0.00755 | 0.8706 | 0.000713 | 1.2758 | 0.026 | 0.9793 |  |  |
| Nc1ccccc1C(=O)O [AA 0.5% in buffer solution, anthranilic acid] |  | 0.0519 | 0.9207 |  |  |  |  | 6.8 |  |
| N.Nc1ccccc1C(=O)O [ammonium anthranilate] |  |  |  |  |  |  |  |  | up to 10% |
